ChEMBL document CHEMBL1146858 (Bioorg Med Chem Lett, 2006)
pIC50, pKi: −log10 of the molar value.

Legend:
Prothrombin = Prothrombin (Homo sapiens, UniProt P00734); test: Binding affinity to human F2a
Coagulation factor X = Coagulation factor X (Homo sapiens, UniProt P00742); test: Binding affinity to human F10a
[1] = target: Coagulation factor VII/tissue factor (Homo sapiens) (UniProt P08709+P13726); test: Anticoagulant activity in plasma by PT assay; type: functional, cell-free
[2] = Volume of distribution in dog; type: ADME, organism-based, Canis lupus familiaris; settings: in vivo, read-out: Vdss
[3] = Half life in orally dosed dog; type: ADME, organism-based, Canis lupus familiaris; settings: in vivo, po
[4] = Apparent permeability in Caco-2 cells; type: ADME, cell-based; settings: human
[5] = Clearance in dog; type: ADME, organism-based, Canis lupus familiaris; settings: in vivo
Oryctolagus cuniculus [6] = organism: Oryctolagus cuniculus; test: cells
[7] = Oral bioavailability in orally dosed dog; type: ADME, organism-based, Canis lupus familiaris; settings: in vivo
[8] = Protein binding in plasma by equilibrium dialysis assay; type: ADME, cell-free; settings: read-out: PPB (converted)
[9] = target: Vitamin K-dependent protein C (Homo sapiens, UniProt P04070); test: Binding affinity to human APC
Oryctolagus cuniculus [10] = organism: Oryctolagus cuniculus
[11] = target: Tissue-type plasminogen activator (Homo sapiens, UniProt P00750); test: Binding affinity to human tPA
Coagulation factor VII = target: T1, Coagulation factor VII (Homo sapiens, UniProt P08709); test: Binding affinity to human f7a
T1 sequence (P08709 whole entry): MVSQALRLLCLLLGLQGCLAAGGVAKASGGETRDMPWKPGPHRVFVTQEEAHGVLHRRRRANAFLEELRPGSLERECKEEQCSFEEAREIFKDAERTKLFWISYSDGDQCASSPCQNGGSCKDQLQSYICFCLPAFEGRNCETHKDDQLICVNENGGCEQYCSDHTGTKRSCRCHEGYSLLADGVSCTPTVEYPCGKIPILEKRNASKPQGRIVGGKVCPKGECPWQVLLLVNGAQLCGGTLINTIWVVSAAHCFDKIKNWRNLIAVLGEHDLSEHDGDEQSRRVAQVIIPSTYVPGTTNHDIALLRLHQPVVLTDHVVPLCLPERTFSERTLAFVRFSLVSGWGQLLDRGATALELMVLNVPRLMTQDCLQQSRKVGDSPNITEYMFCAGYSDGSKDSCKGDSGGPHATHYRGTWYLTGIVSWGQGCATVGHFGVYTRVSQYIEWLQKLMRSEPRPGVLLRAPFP

Chymotrypsinogen B = Chymotrypsinogen B (Homo sapiens, UniProt P17538); test: Binding affinity to human chymotrypsin
Trypsin = Trypsin (Homo sapiens, UniProt P07477+P07478+P35030); test: Binding affinity to human trypsin; type: protein assay
Plasminogen = Plasminogen (Homo sapiens, UniProt P00747); test: Binding affinity to human plasmin
Plasma kallikrein = Plasma kallikrein (Homo sapiens, UniProt P03952); test: Binding affinity to human plasma kallikrein; type: cell-free
Coagulation factor IX = Coagulation factor IX (Homo sapiens, UniProt P00740); test: Binding affinity to human f9a
Sequence of Coagulation factor IX (P00740 47-191 limits assumed): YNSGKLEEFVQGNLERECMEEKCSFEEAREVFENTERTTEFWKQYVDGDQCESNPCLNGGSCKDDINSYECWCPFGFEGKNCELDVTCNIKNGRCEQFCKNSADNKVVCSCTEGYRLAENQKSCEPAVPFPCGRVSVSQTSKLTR
Sequence of Coagulation factor IX (P00740 227-461 limits assumed): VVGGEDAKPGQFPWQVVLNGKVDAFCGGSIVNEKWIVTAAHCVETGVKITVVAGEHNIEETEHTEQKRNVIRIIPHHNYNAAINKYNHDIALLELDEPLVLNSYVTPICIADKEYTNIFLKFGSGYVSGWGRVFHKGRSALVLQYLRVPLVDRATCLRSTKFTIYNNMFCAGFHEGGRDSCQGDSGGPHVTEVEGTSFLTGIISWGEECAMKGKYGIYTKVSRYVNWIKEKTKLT

Sequence of Coagulation factor X (P00742 41-179 limits assumed): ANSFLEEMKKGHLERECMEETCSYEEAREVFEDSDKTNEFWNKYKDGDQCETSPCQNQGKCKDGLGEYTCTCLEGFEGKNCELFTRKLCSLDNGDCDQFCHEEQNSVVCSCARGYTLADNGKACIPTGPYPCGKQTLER
Sequence of Coagulation factor X (P00742 235-488 limits assumed): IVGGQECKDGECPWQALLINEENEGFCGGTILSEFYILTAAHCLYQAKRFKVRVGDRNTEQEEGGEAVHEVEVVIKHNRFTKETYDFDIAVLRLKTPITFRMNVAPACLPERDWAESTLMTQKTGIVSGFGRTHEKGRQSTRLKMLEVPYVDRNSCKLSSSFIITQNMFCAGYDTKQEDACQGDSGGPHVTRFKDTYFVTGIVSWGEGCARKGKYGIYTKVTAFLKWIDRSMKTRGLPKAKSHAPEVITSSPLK
Sequence of Vitamin K-dependent protein C (P04070 43-197 limits assumed): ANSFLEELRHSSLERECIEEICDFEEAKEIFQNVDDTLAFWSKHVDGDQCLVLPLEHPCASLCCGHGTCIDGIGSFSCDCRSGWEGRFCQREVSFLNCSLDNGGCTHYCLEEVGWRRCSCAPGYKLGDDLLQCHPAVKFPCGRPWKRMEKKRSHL
Sequence of Vitamin K-dependent protein C (P04070 212-461 limits assumed): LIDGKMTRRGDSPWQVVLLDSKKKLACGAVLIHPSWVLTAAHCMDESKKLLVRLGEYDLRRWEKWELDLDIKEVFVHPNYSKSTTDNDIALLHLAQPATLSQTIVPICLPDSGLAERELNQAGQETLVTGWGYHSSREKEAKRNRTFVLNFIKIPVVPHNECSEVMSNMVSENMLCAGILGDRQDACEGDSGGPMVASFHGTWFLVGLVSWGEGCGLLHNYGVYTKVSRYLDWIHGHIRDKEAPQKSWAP
Sequence of Chymotrypsinogen B (P17538 34-164 limits assumed, other chains not shown): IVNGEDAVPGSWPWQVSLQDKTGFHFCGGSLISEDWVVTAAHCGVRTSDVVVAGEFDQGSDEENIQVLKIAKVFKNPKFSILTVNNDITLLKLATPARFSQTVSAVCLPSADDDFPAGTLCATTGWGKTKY
Sequence of Chymotrypsinogen B (P17538 167-263 limits assumed, other chains not shown): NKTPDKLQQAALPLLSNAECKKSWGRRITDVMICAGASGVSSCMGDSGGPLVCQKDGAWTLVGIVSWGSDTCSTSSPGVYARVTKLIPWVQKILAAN
Sequence of Plasma kallikrein (P03952 20-390 limits assumed): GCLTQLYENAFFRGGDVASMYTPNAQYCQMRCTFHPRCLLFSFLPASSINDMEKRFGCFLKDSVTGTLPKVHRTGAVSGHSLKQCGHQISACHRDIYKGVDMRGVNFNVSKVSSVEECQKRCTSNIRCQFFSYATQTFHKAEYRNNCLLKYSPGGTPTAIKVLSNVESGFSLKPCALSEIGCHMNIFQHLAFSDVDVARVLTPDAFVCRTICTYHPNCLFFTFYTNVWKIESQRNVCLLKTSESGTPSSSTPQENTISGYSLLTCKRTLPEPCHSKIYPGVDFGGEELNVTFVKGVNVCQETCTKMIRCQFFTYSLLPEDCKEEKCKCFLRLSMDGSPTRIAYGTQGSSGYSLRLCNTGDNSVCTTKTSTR
Sequence of Plasma kallikrein (P03952 391-638 limits assumed): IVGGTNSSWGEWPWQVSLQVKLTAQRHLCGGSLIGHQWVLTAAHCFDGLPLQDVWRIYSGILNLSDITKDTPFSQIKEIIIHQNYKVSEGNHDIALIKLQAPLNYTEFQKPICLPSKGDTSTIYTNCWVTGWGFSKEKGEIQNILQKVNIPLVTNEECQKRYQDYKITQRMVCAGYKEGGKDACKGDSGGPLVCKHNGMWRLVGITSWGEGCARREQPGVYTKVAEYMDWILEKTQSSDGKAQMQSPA
Sequence of Tissue-type plasminogen activator (P00750 whole entry): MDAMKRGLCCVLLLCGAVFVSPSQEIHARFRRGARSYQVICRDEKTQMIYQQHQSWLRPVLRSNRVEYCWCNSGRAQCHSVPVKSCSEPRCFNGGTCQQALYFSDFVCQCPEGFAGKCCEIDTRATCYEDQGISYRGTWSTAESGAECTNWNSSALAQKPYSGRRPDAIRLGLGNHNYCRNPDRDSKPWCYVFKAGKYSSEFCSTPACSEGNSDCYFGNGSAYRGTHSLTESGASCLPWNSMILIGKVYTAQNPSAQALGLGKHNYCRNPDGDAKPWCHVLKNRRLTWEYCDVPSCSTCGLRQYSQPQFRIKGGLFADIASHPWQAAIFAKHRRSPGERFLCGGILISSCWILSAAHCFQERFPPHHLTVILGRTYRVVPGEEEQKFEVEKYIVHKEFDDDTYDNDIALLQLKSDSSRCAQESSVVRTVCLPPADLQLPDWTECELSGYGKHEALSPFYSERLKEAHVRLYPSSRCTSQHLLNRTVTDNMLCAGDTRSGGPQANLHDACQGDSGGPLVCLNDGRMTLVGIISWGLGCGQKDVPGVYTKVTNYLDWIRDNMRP
Sequence of Plasminogen (P00747 97-580 limits assumed): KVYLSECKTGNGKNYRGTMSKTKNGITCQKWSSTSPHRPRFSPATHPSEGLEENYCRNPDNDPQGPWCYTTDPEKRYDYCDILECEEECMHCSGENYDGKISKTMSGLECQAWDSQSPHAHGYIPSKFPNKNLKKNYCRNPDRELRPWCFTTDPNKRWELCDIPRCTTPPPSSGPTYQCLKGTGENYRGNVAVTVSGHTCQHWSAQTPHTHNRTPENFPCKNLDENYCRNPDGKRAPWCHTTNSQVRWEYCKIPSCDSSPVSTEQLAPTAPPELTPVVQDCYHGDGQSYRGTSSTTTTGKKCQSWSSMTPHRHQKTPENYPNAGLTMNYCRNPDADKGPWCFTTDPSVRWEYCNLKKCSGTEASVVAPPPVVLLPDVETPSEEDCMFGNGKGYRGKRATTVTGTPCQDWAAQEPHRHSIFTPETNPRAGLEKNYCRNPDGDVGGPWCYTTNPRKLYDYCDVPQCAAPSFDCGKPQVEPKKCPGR
Sequence of Plasminogen (P00747 581-810 limits assumed): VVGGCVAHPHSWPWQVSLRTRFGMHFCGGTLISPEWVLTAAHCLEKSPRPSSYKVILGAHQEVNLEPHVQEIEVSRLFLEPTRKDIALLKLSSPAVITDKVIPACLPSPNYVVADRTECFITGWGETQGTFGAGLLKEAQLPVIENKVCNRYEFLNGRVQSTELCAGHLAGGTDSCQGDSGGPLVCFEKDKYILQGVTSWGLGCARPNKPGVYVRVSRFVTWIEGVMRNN

Compound | pKi (Prothrombin) | pKi (Coagulation factor X) | 2PT [1] | Vd [2] | half-life [3] | clearance [5] | bioavailability [7] | further results
Nc1noc2ccc(-n3nc(C(F)(F)F)c4c3C(=O)N(c3ccc(-c5ccccc5CN5CCOCC5)cc3)CC4)cc12 | 6.89 | 9.46 | 41 µM |  |  |  |  | 
CN(C)Cc1ccccc1-c1ccc(N2CNc3c(C(F)(F)F)nn(-c4ccc5onc(N)c5c4)c3C2=O)cc1 |  | 9.60 | 1.4 µM |  |  |  |  | 
CN(C)Cc1ccccc1-c1ccc(N2CCc3c(C(F)(F)F)nn(-c4ccc5onc(N)c5c4)c3C2=O)cc1 | 7.37 | 10.40 | 2.7 µM | 4.5 L/kg | 3.8 h | 16.3 mL/min/kg | 50% | Papp [4]: 4.7 ×10⁻⁶ cm/s; pIC50 (Oryctolagus cuniculus [6]): 6.65
Cc1nn(-c2ccc3onc(N)c3c2)c2c1CCN(c1ccc(-c3ccccc3CN(C)C)cc1)C2=O | 6.42 | 9.26 | 2.1 µM | 6.4 L/kg | 1.6 h | 53.3 mL/min/kg | 13% | Papp [4]: 6.8 ×10⁻⁶ cm/s
Nc1noc2ccc(-n3nc(C(F)(F)F)c4c3C(=O)N(c3ccc(-c5ccccc5CN5CCCC5)cc3)CC4)cc12 | 7.24 | 9.82 | 3.2 µM | 5 L/kg | 5.3 h | 16.8 mL/min/kg | 37% | 
Nc1noc2ccc(-n3nc(C(F)(F)F)c4c3C(=O)N(c3ccc(-c5ccccc5CN5CC[C@H](O)C5)cc3)CC4)cc12 | 7.23 |  | 4.8 µM | 1.12 L/kg | 4.5 h | 4.5 mL/min/kg | 52% | 
Nc1noc2ccc(-n3nc(C(F)(F)F)c4c3C(=O)N(c3ccc(-c5ccccc5CN5CC[C@@H](O)C5)cc3F)CC4)cc12 | 7.14 | 9.80 | 8.4 µM | 2.8 L/kg | 5.9 h | 5.83 mL/min/kg | 81% | Papp [4]: 13 ×10⁻⁶ cm/s; fraction unbound [8]: < 0.02; pIC50 (Oryctolagus cuniculus [6]): 6.22
CN(C)Cc1nccn1-c1ccc(NC(=O)c2cc(C(F)(F)F)nn2-c2ccc3onc(N)c3c2)c(F)c1 [RAZAXABAN] |  |  | 2.1 µM |  |  |  |  | pKi [9]: < 5.64
CCN(CC)Cc1ccccc1-c1ccc(N2CCc3c(C(F)(F)F)nn(-c4ccc5onc(N)c5c4)c3C2=O)cc1 | 7.01 | 9.96 | 3 µM |  |  |  |  | 
Nc1noc2ccc(-n3nc(C(F)(F)F)c4c3C(=O)N(c3ccc(-c5ccccc5CN5CCCC5)cc3F)CC4)cc12 |  | 9.62 | 6.1 µM | 4.8 L/kg | 4.9 h | 13.2 mL/min/kg | 85% | fraction unbound [8]: < 0.02; pIC50 (Oryctolagus cuniculus [6]): 6.00
CNCc1ccccc1-c1ccc(N2CCc3c(C(F)(F)F)nn(-c4ccc5onc(N)c5c4)c3C2=O)cc1 | 6.82 | 9.47 | 3.7 µM | 9.7 L/kg | 7.4 h | 27.7 mL/min/kg | 67% | 
CN(C)Cc1ccccc1-c1ccc(N2CCCc3c(C(F)(F)F)nn(-c4ccc5onc(N)c5c4)c3C2=O)cc1 |  | 9.09 | 4 µM |  |  |  |  | 
Cc1nn(-c2ccc3onc(N)c3c2)c2c1CCN(c1ccc(-c3ccccc3CN3CC[C@@H](O)C3)cc1)C2=O | 6.89 | 9.57 | 2.8 µM | 0.75 L/kg | 1.7 h | 7 mL/min/kg | 44% | Papp [4]: 6.2 ×10⁻⁶ cm/s; ID50 (Oryctolagus cuniculus [10]): 0.6 ug/hr.kg
Nc1noc2ccc(-n3nc(C(F)(F)F)c4c3C(=O)N(c3ccc(-c5ccccc5CN5CCNCC5)cc3)CC4)cc12 | 6.55 | 9.19 | 14 µM |  |  |  |  | 
Nc1noc2ccc(-n3nc(C(F)(F)F)c4c3C(=O)N(c3ccc(-c5ccccc5CN5CCC(O)CC5)cc3)CC4)cc12 | 7.15 | 9.66 | 4.9 µM | 1.4 L/kg | 6.4 h | 3.5 mL/min/kg | 102% | Papp [4]: 0.4 ×10⁻⁶ cm/s; pIC50 (Oryctolagus cuniculus [6]): 6.29
CN(C)Cc1ccccc1-c1ccc(N2CC=Cc3c(C(F)(F)F)nn(-c4ccc5onc(N)c5c4)c3C2=O)cc1 |  | 9.22 | 6.9 µM |  |  |  |  | 
Nc1noc2ccc(-n3nc(C(F)(F)F)c4c3C(=O)N(c3ccc(-c5ccccc5CN5CC[C@@H](O)C5)cc3)CC4)cc12 | 7.46 |  | 3.6 µM |  |  |  | 82% | pKi [11]: < 5.55; Papp [4]: 1.7 ×10⁻⁶ cm/s; fraction unbound [8]: 0.026; pKi (Coagulation factor VII): < 5.55; pKi [9]: < 5.55; pKi (Chymotrypsinogen B): < 5.55; Ki (Trypsin): > 2800 nM; pKi (Plasminogen): < 5.55; pKi (Plasma kallikrein): < 5.55; pKi (Coagulation factor IX): < 5.55
CN(C)Cc1ccccc1-c1ccc(N2CCCc3c(C(F)(F)F)nn(-c4ccc5onc(N)c5c4)c3C2=O)c(F)c1 |  | 9.07 | 8.5 µM |  |  |  |  | 
CN(C)Cc1ccccc1-c1ccc(N2CC=Cc3c(C(F)(F)F)nn(-c4ccc5onc(N)c5c4)c3C2=O)c(F)c1 |  | 9.22 | 15 µM |  |  |  |  | 
Cc1nn(-c2ccc3onc(N)c3c2)c2c1CCN(c1ccc(-c3ccccc3CN3CC[C@@H](O)C3)cc1F)C2=O | 6.60 | 9.47 | 4.9 µM | 1.1 L/kg | 1.1 h | 15.7 mL/min/kg | 62% | 
CN(C)Cc1ccccc1-c1ccc(N2CCc3c(C(F)(F)F)nn(-c4ccc5onc(N)c5c4)c3C2=O)c(F)c1 | 7.12 | 9.89 | 5.6 µM | 8.8 L/kg | 6.4 h | 17.5 mL/min/kg | 83% | Papp [4]: 8.9 ×10⁻⁶ cm/s; fraction unbound [8]: < 0.02; pIC50 (Oryctolagus cuniculus [6]): 6.22
Cc1nn(-c2ccc3onc(N)c3c2)c2c1CCN(c1ccc(-c3ccccc3CN3CCCC3)cc1)C2=O | 6.92 | 9.51 | 1.4 µM | 3.3 L/kg | 1.7 h | 31.7 mL/min/kg | 10% | 
CN1CCN(Cc2ccccc2-c2ccc(N3CCc4c(C(F)(F)F)nn(-c5ccc6onc(N)c6c5)c4C3=O)cc2)CC1 | 6.64 | 9.15 | 31 µM |  |  |  |  | 
CN(C)Cc1ccccc1-c1ccc(NC(=O)c2cc(C(F)(F)F)nn2-c2ccc3onc(N)c3c2)c(F)c1 |  |  | 4.2 µM |  |  |  |  | 
CCN(C)Cc1ccccc1-c1ccc(N2CCc3c(C(F)(F)F)nn(-c4ccc5onc(N)c5c4)c3C2=O)cc1 | 7.24 | > 10.00 | 3.2 µM |  |  |  |  | 
